Test results: patent US20220315554A1, “COMPOUNDS COMPRISING A […] LIGAND AND USE THEREOF” (priority 2019, published 2022)
pIC50, pKd: −log10 of the molar value. Numbered stars: 1 amine (or outer) side, 2 acyl side, 3 side chain; on linkers, the order of the positions; unused ones are H or OH. Bridge positions count the residues as written; N and C are the ends. Square brackets hold non-standard residues; d marks the D form. Peptide text beside a SMILES is read from it. * marks the point of attachment. X3 = NC(=O)[C@H](CCCCNC(=O)CN1CCN(CC(=O)O)CCN(CC(=O)O)CCN(CC(=O)O)CC1)NC(=O)CCC(=O)NCCCOCCOCCOCCCN*; X6 = NC(=O)[C@H](CCCCNC(=O)CCCC[C@@H]1SC[C@@H]2NC(=O)N[C@@H]21)NC(=O)CCC(=O)NCCCOCCOCCOCCCN*; mXylylene = c1cc(C[*:1])cc(C[*:2])c1; Hexanoyl = CCCCCC(=O)*

Columns and labels:
[1] = biological target: T1, FAP-expressing human WI-38 fibroblasts (Homo sapiens, UniProt Q12884); experiment: Competitive FACS binding assay
T1 construct: FAP-expressing human WI-38 fibroblasts (ECACC) were cultured in EMEM; host or cells: WI-38 human fibroblasts
T1 sequence (Q12884 1-760): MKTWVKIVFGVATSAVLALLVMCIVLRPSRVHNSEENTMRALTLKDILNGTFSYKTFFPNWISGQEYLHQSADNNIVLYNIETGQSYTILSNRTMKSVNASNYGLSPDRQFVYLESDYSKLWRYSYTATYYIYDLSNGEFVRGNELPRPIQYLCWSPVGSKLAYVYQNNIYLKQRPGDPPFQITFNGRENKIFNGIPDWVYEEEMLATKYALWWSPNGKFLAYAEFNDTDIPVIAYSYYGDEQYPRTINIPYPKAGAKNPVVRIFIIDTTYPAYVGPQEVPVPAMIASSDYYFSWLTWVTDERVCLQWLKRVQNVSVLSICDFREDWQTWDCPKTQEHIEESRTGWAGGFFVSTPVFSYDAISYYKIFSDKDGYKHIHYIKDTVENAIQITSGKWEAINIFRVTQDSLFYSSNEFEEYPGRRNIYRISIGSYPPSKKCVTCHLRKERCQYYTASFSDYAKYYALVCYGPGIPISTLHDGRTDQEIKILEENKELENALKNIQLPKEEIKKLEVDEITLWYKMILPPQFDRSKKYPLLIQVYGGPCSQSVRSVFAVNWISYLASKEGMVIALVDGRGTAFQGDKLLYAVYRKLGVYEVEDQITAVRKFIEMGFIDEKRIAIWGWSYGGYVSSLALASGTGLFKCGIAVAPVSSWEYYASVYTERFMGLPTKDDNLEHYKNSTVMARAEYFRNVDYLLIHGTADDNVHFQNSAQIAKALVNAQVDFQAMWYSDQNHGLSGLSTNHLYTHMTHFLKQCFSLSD
Experimental: Cells were analyzed in an Attune NxT flow cytometer. […]

recombinant human PREP = biological target: T2, recombinant human PREP (Homo sapiens, UniProt P48147); experiment: PREP protease activity assay; format: biochemical
T2 construct: purchased R&D systems 4308-SE
T2 sequence (P48147 1-710): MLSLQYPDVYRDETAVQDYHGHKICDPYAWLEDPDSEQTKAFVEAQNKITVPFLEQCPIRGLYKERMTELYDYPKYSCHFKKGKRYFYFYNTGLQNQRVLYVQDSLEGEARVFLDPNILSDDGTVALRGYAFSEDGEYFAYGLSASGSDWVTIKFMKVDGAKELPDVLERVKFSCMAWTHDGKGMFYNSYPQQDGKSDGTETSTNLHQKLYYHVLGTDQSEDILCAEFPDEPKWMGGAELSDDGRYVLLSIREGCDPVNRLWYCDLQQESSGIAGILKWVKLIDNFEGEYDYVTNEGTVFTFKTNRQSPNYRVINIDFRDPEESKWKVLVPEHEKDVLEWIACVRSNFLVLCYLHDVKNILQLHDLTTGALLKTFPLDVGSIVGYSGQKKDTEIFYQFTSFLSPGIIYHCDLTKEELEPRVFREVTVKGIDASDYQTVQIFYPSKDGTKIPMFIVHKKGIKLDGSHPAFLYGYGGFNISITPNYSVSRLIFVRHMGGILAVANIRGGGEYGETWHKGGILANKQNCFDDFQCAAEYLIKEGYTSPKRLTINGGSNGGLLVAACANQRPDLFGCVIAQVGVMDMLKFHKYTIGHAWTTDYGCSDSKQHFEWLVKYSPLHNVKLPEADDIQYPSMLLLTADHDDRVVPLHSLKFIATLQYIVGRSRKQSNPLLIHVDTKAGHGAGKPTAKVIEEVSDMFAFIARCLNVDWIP

Recombinant human DPP4 = biological target: T3, Recombinant human DPP4 (Homo sapiens, UniProt P27487); experiment: DPP4 protease activity assay; format: biochemical
T3 construct: purchased R&D systems 9168-SE

Human recombinant FAP [2] = biological target: T4, Human recombinant FAP (Homo sapiens, UniProt Q12884); experiment: FRET-based FAP protease activity assay; format: biochemical; parameters: purchased R&D systems 3715-SE
T4 sequence (Q12884 1-760): T1 sequence (Q12884 1-760)

[3] = Plasma stability assay, mouse plasma; format: in vitro ADME; conditions: 4 h incubation, 37° C., read-out: % intact compound remaining after incubation, Mouse plasma
Human recombinant FAP [4] = biological target: T4, Human recombinant FAP; experiment: Surface plasmon resonance (Biacore) assay; format: binding
[5] = pIC50 Category (FACS), competition with 3 nM Cy5-labeled compound, WI-38 fibroblasts, 4° C., 1 hour
[6] = pIC50 Category (Activity), recombinant human FAP, FRET substrate, 37° C.

T3 sequence (P27487 whole entry): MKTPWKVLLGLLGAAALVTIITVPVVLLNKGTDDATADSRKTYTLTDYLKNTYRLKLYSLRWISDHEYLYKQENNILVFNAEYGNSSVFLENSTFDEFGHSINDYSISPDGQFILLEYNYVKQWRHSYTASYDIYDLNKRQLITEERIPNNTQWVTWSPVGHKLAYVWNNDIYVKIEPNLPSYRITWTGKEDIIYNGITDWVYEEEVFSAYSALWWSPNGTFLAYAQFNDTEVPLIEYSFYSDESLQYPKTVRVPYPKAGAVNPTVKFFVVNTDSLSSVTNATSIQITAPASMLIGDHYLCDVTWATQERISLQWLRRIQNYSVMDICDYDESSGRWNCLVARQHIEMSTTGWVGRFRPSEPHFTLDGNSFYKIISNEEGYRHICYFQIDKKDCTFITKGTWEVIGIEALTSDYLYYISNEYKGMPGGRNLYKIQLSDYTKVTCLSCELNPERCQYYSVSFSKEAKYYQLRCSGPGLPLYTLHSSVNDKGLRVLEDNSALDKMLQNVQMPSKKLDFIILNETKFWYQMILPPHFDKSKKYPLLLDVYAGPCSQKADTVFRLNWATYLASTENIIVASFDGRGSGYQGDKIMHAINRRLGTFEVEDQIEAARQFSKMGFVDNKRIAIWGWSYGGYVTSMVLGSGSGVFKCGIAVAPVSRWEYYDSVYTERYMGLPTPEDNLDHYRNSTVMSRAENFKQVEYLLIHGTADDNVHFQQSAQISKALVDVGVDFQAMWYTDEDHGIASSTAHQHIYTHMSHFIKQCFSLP

SMILES | pIC50 [1, 5] | pIC50 (recombinant human PREP) | pIC50 (Recombinant human DPP4) | pIC50 (Human recombinant FAP [2]; [6]) | remaining at 4 h, 9.8 µM [3] | pKd (Human recombinant FAP [4]) | pIC50 ([1]; pIC50 (highest activity category), FACS binding) | pIC50 (Human recombinant FAP [2]; pIC50 (highest activity category), FAP activity assay)
CCCCCC(=O)N[C@H]1CSCc2cccc(c2)CSC[C@@H](C(=O)N[C@@H](CC(=O)O)C(=O)N[C@@H](Cc2c[nH]cn2)C(=O)N[C@@H](Cc2ccccc2)C(=O)N[C@@H](CCCNC(=N)N)C(=O)N[C@@H](CC(=O)O)C(N)=O)NC(=O)[C@H](Cc2ccccc2)NC(=O)[C@H](CCC(=O)O)NC(=O)[C@H]([C@@H](C)O)NC(=O)[C@@H]2CCCN2C(=O)[C@@H]2CCCN2C1=O [3BP-2974, Hex-[Cys(3MeBn)-Pro-Pro-Thr-Glu-Phe-Cys]-Asp-His-Phe-Arg-Asp-NH2] (Hexanoyl-CPPTEFCDHFRD-NH2; linker 1-7 via mXylylene) | > 8.00 |  |  | > 8.00 | 92% | > 8.00 |  | 
CCCCCC(=O)N[C@H]1CSCc2cccc(c2)CSC[C@@H](C(=O)N[C@@H](CC(=O)O)C(=O)N[C@@H](Cc2c[nH]cn2)C(=O)N[C@@H](Cc2ccccc2)C(=O)N[C@@H](CCCNC(=N)N)C(=O)N[C@@H](CC(=O)O)C(=O)NCCCOCCOCCOCCCNC(=O)CCC(=O)N[C@@H](CCCCNC(=O)CN2CCN(CC(=O)O)CCN(CC(=O)O)CCN(CC(=O)O)CC2)C(N)=O)NC(=O)[C@H](Cc2ccccc2)NC(=O)[C@H](CCC(=O)O)NC(=O)[C@H]([C@@H](C)O)NC(=O)[C@@H]2CCCN2C(=O)[C@@H]2CCCN2C1=O [3BP-3105, Hex-[Cys(3MeBn)-Pro-Pro-Thr-Glu-Phe-Cys]-Asp-His-Phe-Arg-Asp-Ttds-Lys(DOTA)-NH2] (Hexanoyl-CPPTEFCDHFRD-X3; linker 1-7 via mXylylene) | > 8.00 | < 6.00 | < 6.00 | > 8.00 | 55% | > 8.00 |  | 
CSCC[C@H](NC(=O)CCC(=O)NCCCOCCOCCOCCOCCCNC(=O)CN1CCN(CC(=O)O)CCN(CC(=O)O)CCN(CC(=O)O)CC1)C(=O)N[C@H]1CSCc2cccc(c2)CSC[C@@H](C(=O)N[C@@H](CC(=O)O)C(=O)N[C@@H](Cc2c[nH]cn2)C(=O)N[C@@H](Cc2ccccc2)C(=O)N[C@@H](CCCNC(=N)N)C(=O)N[C@@H](CC(=O)O)C(N)=O)NC(=O)[C@H](Cc2ccccc2)NC(=O)[C@H](CCC(=O)O)NC(=O)[C@H]2NC(=O)[C@@H]3C(CCN3C(=O)[C@@H]3CCCN3C1=O)[C@H]2O [3BP-3168, DOTA-Ttds-Nle-[Cys(3MeBn)-Pro-Pro-Thr-Glu-Phe-Cys]-Asp-His-Phe-Arg-Asp-NH2] | > 8.00 | < 6.00 | < 6.00 | > 8.00 | 100% | > 8.00 | > 8.00 | > 8.00
CCCCCC(=O)N[C@H]1CSCc2cccc(c2)CSC[C@@H](C(N)=O)NC(=O)[C@H](Cc2ccccc2)NC(=O)[C@H](CCC(N)=O)NC(=O)[C@H]([C@@H](C)O)NC(=O)[C@@H]2CCCN2C(=O)[C@@H]2CCCN2C1=O [3BP-3349, Hex-[Cys(3MeBn)-Pro-Pro-Thr-Gln-Phe-Cys]-NH2] | 7.10 to 8.00 | < 6.00 | < 6.00 | > 8.00 |  | > 8.00 |  | 
CCCCCC(=O)N[C@H]1CSCc2cccc(c2)CSC[C@@H](C(=O)N[C@@H](CC(=O)O)C(N)=O)NC(=O)[C@H](Cc2ccccc2)NC(=O)[C@H](CCC(N)=O)NC(=O)[C@H]([C@@H](C)O)NC(=O)[C@@H]2CCCN2C(=O)[C@@H]2CCCN2C1=O [3BP-3476, Hex-[Cys(3MeBn)-Pro-Pro-Thr-Gln-Phe-Cys]-Asp-NH2] (Hexanoyl-CPPTQFCD-NH2; linker 1-7 via mXylylene) | > 8.00 | < 6.00 | < 6.00 | > 8.00 |  | > 8.00 |  | 

Continued, values first:

pIC50 [1, 5] | pIC50 (recombinant human PREP) | pIC50 (Recombinant human DPP4) | pIC50 (Human recombinant FAP [2]; [6]) | remaining at 4 h, 9.8 µM [3] | pKd (Human recombinant FAP [4]) | pIC50 ([1]; pIC50 (highest activity category), FACS binding) | pIC50 (Human recombinant FAP [2]; pIC50 (highest activity category), FAP activity assay) | SMILES
> 8.00 | < 6.00 | < 6.00 | > 8.00 |  |  |  |  | CSCC[C@H](N)C(=O)N[C@H]1CSCc2cccc(c2)CSC[C@@H](C(=O)N[C@@H](CC(=O)O)C(=O)N[C@@H](Cc2c[nH]cn2)C(=O)N[C@@H](Cc2ccccc2)C(=O)N[C@@H](CCCNC(=N)N)C(=O)N[C@@H](CC(=O)O)C(=O)NCCCOCCOCCOCCCNC(=O)CCC(=O)N[C@@H](CCCCNC(=O)CCCC[C@@H]2SC[C@@H]3NC(=O)N[C@@H]32)C(N)=O)NC(=O)[C@H](Cc2ccccc2)NC(=O)[C@H](CCC(=O)O)NC(=O)[C@H]([C@@H](C)O)NC(=O)[C@@H]2CCCN2C(=O)[C@@H]2CCCN2C1=O [3BP-2881, H-Met-[Cys(3MeBn)-Pro-Pro-Thr-Glu-Phe-Cys]-Asp-His-Phe-Arg-Asp-Ttds-Lys(Bio)-NH2] (H-MCPPTEFCDHFRD-X6; linker 2-8 via mXylylene)
> 8.00 |  |  | > 8.00 | 100% | > 8.00 |  |  | CSCC[C@H](NC(C)=O)C(=O)N[C@H]1CSCc2cccc(c2)CSC[C@@H](C(=O)N[C@@H](CC(=O)O)C(=O)N[C@@H](Cc2c[nH]cn2)C(=O)N[C@@H](Cc2ccccc2)C(=O)N[C@@H](CCCNC(=N)N)C(=O)N[C@@H](CC(=O)O)C(N)=O)NC(=O)[C@H](Cc2ccccc2)NC(=O)[C@H](CCC(=O)O)NC(=O)[C@H]([C@@H](C)O)NC(=O)[C@@H]2CCCN2C(=O)[C@@H]2CCCN2C1=O [3BP-2975, Ac-Met-[Cys(3MeBn)-Pro-Pro-Thr-Glu-Phe-Cys]-Asp-His-Phe-Arg-Asp-NH2] (Ac-MCPPTEFCDHFRD-NH2; linker 2-8 via mXylylene)
> 8.00 |  |  | > 8.00 | 78% | > 8.00 |  |  | CC(=O)N[C@H]1CSCc2cccc(c2)CSC[C@@H](C(=O)N[C@@H](CC(=O)O)C(=O)N[C@@H](Cc2c[nH]cn2)C(=O)N[C@@H](Cc2ccccc2)C(=O)N[C@@H](CCCNC(=N)N)C(=O)N[C@@H](CC(=O)O)C(N)=O)NC(=O)[C@H](Cc2ccccc2)NC(=O)[C@H](CCC(=O)O)NC(=O)[C@H]([C@@H](C)O)NC(=O)[C@@H]2CCCN2C(=O)[C@@H]2CCCN2C1=O [3BP-3202, Ac-[Cys(3MeBn)-Pro-Pro-Thr-Glu-Phe-Cys]-Asp-His-Phe-Arg-Asp-NH2] (Ac-CPPTEFCDHFRD-NH2; linker 1-7 via mXylylene)
> 8.00 |  |  | > 8.00 | 80% |  |  |  | CSCC[C@H](NC(C)=O)C(=O)N[C@H]1CSCc2cccc(c2)CSC[C@@H](C(=O)N[C@@H](CC(=O)O)C(=O)N[C@@H](Cc2c[nH]cn2)C(=O)N[C@@H](Cc2ccccc2)C(=O)N[C@H](CCCNC(=N)N)C(=O)N[C@@H](CC(=O)O)C(N)=O)NC(=O)[C@H](Cc2ccccc2)NC(=O)[C@H](CCC(=O)O)NC(=O)[C@H]([C@@H](C)O)NC(=O)[C@@H]2CCCN2C(=O)[C@@H]2CCCN2C1=O [3BP-3212, Ac-Met-[Cys(3MeBn)-Pro-Pro-Thr-Glu-Phe-Cys]-Asp-His-Phe-arg-Asp-NH2] (Ac-MCPPTEFCDHF[dR]D-NH2; linker 2-8 via mXylylene)
6.10 to 7.00 | < 6.00 | < 6.00 | 7.10 to 8.00 |  |  |  |  | CCCCCC(=O)N[C@H]1CSCc2cccc(c2)CSC[C@@H](C(N)=O)NC(=O)[C@H](Cc2ccccc2)NC(=O)[C@H](CCC(=O)O)NC(=O)[C@H]([C@@H](C)O)NC(=O)[C@@H]2CCCN2C(=O)[C@@H]2CCCN2C1=O [3BP-3287, Hex-[Cys(3MeBn)-Pro-Pro-Thr-Glu-Phe-Cys]-NH2] (Hexanoyl-CPPTEFC-NH2; linker 1-7 via mXylylene)
